Source: ChEMBL document CHEMBL1155678, “Artoindonesianin C, a new xanthone derivative from Artocarpus teysmanii” (J Nat Prod, 2000)

Columns and labels:
[1] = system: Bombyx mori; assay: Inhibition of leucine uptake in Bombyx mori larval midgut brush border membrane vesicles at 0.2 uM; format: functional
[2] = Toxicity against Artemia salina; format: organism-based; settings: in vivo

**Q.** For C=C(C)c1cc2c(=O)c3c(O)cc4c(c3oc2c2c1C(O)(C(=O)OC)CC2=O)C=CC(C)(C)O4 (configuration not stated) [ARTOINDONESIANIN C], which inhibition [1] is on record?
**A.** 20%

**Q.** And the LC50 [2]?
**A.** > 500 µg/mL
